The target in assay [1] is T1, CCR3 (Homo sapiens, UniProt P51677).
T1 sequence (P51677 1-355): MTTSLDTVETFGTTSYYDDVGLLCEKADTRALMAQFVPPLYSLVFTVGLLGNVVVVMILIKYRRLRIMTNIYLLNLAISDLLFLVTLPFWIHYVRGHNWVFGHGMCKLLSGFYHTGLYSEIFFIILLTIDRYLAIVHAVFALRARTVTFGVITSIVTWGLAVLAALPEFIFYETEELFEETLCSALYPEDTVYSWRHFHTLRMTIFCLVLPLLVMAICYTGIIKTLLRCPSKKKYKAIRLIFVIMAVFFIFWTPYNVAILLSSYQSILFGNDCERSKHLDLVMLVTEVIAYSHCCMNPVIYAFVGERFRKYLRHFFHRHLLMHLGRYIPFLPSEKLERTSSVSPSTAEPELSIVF
The note with it: assay not stated; from the cited reference; cited from earlier work.

In another assay the test system is neovascular (wet) AMD. The following applies: cited from earlier work; for patients with persistent presence of fluid at the retina (OCT or angiography): IVT, after two years of monthly injections.
Assay [2] concerns choroidal neovascularization (CNV) secondary to wAMD. In words: clinical cases, naïve subject eyes: oral Compound 1 followed by IVT anti-VEGF. The class given is in vivo, human. As to the method:
Newly diagnosed subjects with choroidal neovascularization (CNV) secondary to wAMD were administered 400 mg of Compound 1 CCR antagonist orally twice per day (BID) for a total dose of 800 mg per day. The clinical trial treatment regimen included 6 weeks of Compound 1 followed by 4 weeks of safety follow up (weeks 7 and 8 as in office visits and follow up by phone at week 10) with no additional Compound 1 treatment. Subject treatment visits took place once per week where mean changes in BCVA as measured by ETDRS were noted, slit lamp and SD-OCT performed, and intraocular pressure taken. Subjects then returned to routine treatment with their physician post clinical trial and were treated or re-treated with α-VEGF agents per physician judgment guided by standard criteria such as new CNV activity on OCT/angio-OCT (aOCT) or increased foveal subretinal fluid (SRF)/intra-retinal fluid (IRF). Different α-VEGF agents (described in FIGS. 1-3, 6-8, 11-13, and 16-18, 21 and Tables A-C and E-G) were administered by intra-vitreal injection. For aflibercept, 2 mg in 0.05 mL was given per single intravitreal injection. For bevacizumab, 1.25 mg in 0.05 mL was given per single intravitreal injection. For ranibizumab, 0.5 mg in 0.05 mL was given per single intravitreal injection. All OCT tests were performed using REVO NX (Optopol Technology, Poland). A 3-dimensional (3D) scanning protocol covering a 7×7 mm area was used (1024 A-scans×64 tomograms). The central retinal thickness (CRT) was measured automatically (software version 9.6). The detection of the fovea and the accuracy of layers segmentation was checked by the operator. If necessary, the fovea location and the outer retinal boundaries were corrected manually by moving the pointer to the desired position. In such cases, the central macular thickness value was recalculated. Subretinal and intraretinal fluid presence was assessed manually. SRF was defined as a hyporeflective space between retinal pigment epithelium and the sensory retina, whereas IRF as ovoid or round spaces within the retina, with a low reflectivity content. SRF and IRF was distinguished from the outer retinal tubulations (ORTs) and degenerative IRF. The latter were not recognized as a CNV activity sign. CNV activity signs such as neovascular vasculature seen on OCT angiography were monitored. Additionally, lipid exudates and enlargement of RPE elevation were noted.

Assay [3] addresses T1, CCR3. The note with it: from the cited reference; read-out: IC50 (Calcium influx); cited from earlier work.
The target of assay [4] is T1, CCR3. The note with it: from the cited reference; read-out: IC50 (binding); cited from earlier work.
The target of assay [5] is T1, CCR3. The following applies: from the cited reference; read-out: IC50 (chemotaxis); cited from earlier work.
The subject of assay [6] is refractory wet Age-Related Macular Degeneration (wAMD). Kind of assay: clinical case, refractory subject eyes: oral Compound 1 followed by IVT anti-VEGF. The following applies: Compound 1 regimen followed by IVT anti-VEGF, summary. The class given is in vivo, human. Here is the method: Subjects with refractory wet Age-Related Macular Degeneration (wAMD) were administered 400 mg of Compound 1 CCR antagonist orally twice per day (BID) for a total dose of 800 mg per day. The treatment regimen of Compound 1 lasted 6-weeks. Refractory subjects for this 6-week regimen were described as having persistent subretinal fluid, intraretinal fluid, and absence of improvement in visual acuity after at least 3 consecutive (approximately 4-6 weeks apart) IVT anti-VEGF injections. After the end of a clinical trial consisting of 6-weeks of Compound 1 CCR antagonist treatment, and four weeks of clinical trial follow up with no additional treatment, a subject with heavily pre-treated bilateral disease entered back into normal treatment with their physician and was treated or re-treated with α-VEGF agents per physician judgment guided by standard criteria such as new CNV activity on OCT/angiography OCT (angio-OCT or aOCT) or foveal subretinal fluid (SRF)/intra-retinal fluid (IRF) or PED. Different α-VEGF agents (described in FIGS. 4-5, 9-10, 14-15, 19-21 and Tables D and H) were administered by intra-vitreal injection. […] The central retinal thickness (CRT) was measured automatically (software version 9.6). […] Subretinal and intraretinal fluid presence was assessed manually. […] CNV activity signs such as neovascular vasculature seen on OCT angiography were monitored. […]

The subject of assay [7] is human eotaxin-1 induced eosinophil shape change. The following applies: human whole blood; read-out: IC50, antagonism of human eotaxin-1 induced eosinophil shape change; cited from earlier work.
[8] abbreviates: Patient Case 3, after 6 weeks oral Compound 1, once ranibizumab, subsequently bevacizumab.

Where two headings read alike, the source gives them in different places.

A word on the IC50: it is the point on the concentration scale where inhibition reaches its midpoint.

In the case of `CC(=O)Nc1ccc2nc(SCC(=O)NC3CCN(Cc4ccc(Cl)c(Cl)c4)CC3)sc2c1`, on CCR3 [1], the IC50 is 1.5 nM. Regarding `NC(=O)c1ccc(CNC(=O)NCC2CN(Cc3ccc(Cl)c(Cl)c3)CCO2)cc1` (stereo not drawn), on CCR3 [1], the IC50 was 10 nM. Take bevacizumab: the “patients with persistent presence of fluid at the retina (OCT or angiography)” value with neovascular (wet) AMD is recorded as 67.4%. Also, the “average anti-VEGF doses required per year” value in assay [2] (Patient Case 1, after 6 weeks oral Compound 1) stood at 0.667 dose per year; in assay [2] (setting [8]), 1.23 dose per year.

In the case of `Cc1ccc(C(=O)N2CCC(=CC(=O)N[C@@H]3CCN(Cc4ccc5cc(F)ccc5c4)C3)CC2)nn1`, the IC50 at CCR3 [3] was 6.2 nM. With `Cc1ccc(C(=O)N[C@@H](Cc2ccc(Cl)cc2)C(=O)N[C@@H](C)C(=O)Nc2ccc(Cl)cc2)c(C)c1`, the IC50 on CCR3 [1] is 3.5 nM. Turning to `CC1=C(CC(CCc2ccc([N+](=O)[O-])cc2)C2CCN(C(=O)c3ccncc3)CC2)C(=O)N(c2ccc(F)cc2)C1C` (stereo not drawn), the IC50 at CCR3 [1] was 12 nM. Turning to aflibercept, in assay [2] (Patient Case 2, after 6 weeks oral Compound 1), the “average anti-VEGF doses required per year” value was determined as 2.36 doses per year.

With `O=C(NCC1CCCN(C2CCN(Cc3ccc(Cl)c(Cl)c3)CC2)C1)c1cccc2cccnc12` (stereo not drawn), the 50% inhibitory concentration (IC50) at CCR3 [1] is 30 nM. `O=C(Nc1ccccc1[N+](=O)[O-])[C@@H]1CCCN1CNC1CC2CCC(C1)N2Cc1ccc2cc(F)ccc2c1` (stereo partly drawn): the IC50 at CCR3 [1] was 4.9 nM. As to `CN1CCC(c2ccccc2)[C@@H]1COc1cccnc1` (stereo partly drawn), on CCR3 [1], the IC50 is 195 nM.

For `C[C@@H](NC(=O)Nc1cccc(-c2nnnn2C)c1)C(O)CN1CCC[C@@H](Cc2ccc(F)cc2)C1` (stereo partly drawn), the IC50 on CCR3 [4] was 0.3 nM; on CCR3 [5], 0.038 nM. Consider `Cc1cc(C(=O)N(C)C)cc(NC(=O)[C@H]2CCC(=O)N2C2CCN(Cc3ccc(Cl)c(C)c3)CC2)n1` [Compound 1], for which, in assay [6], the CRT entry is “stabilized” and the “Central retinal pigmental epithelium detachment height” value was “reduced”. Also, the IC50 in assay [7] is 42.5 ± 43.5 nM. For the molecule `CCCN1CCC(Cc2ccc(F)cc2)C[C@@H]1CCCNC(=O)Nc1cccc(C(C)=O)c1` (stereo partly drawn), the IC50 on CCR3 [4] was 2 nM; at CCR3 [5], 19 nM; at CCR3 [3], 26 nM.

On to `Cc1ccc[n+]([O-])c1C(=O)N1CCC(=CC(=O)N[C@@H]2CCN(Cc3ccc4cc(F)ccc4c3)C2)CC1`, for which the IC50 is 3 nM on CCR3 [4], 19.9 nM on CCR3 [5] and 5.4 nM at CCR3 [3].

B1: ranibizumab (antibody, chains of the INN, looked up, V domains shown)
VH: EVQLVESGGGLVQPGGSLRLSCAASGYDFTHYGMNWVRQAPGKGLEWVGWINTYTGEPTYAADFKRRFTFSLDTSKSTAYLQMNSLRAEDTAVYYCAKYPYYYGTSHWYFDVWGQGTLVTVSS
VL: DIQLTQSPSSLSASVGDRVTITCSASQDISNYLNWYQQKPGKAPKVLIYFTSSLHSGVPSRFSGSGSGTDFTLTISSLQPEDFATYYCQQYSTVPWTFGQGTKVEIK
modifications: Fab
notes: anti-VEGF antibody, intravitreal injection
For B1, the “patients with persistent presence of fluid at the retina (OCT or angiography)” value in the assay with neovascular (wet) AMD was 51.5%. Besides, the “additional average letter gain with monthly dosing versus less frequent dosing” value in the assay with neovascular (wet) AMD (nine months after 3 initial monthly doses, FDA label) is listed as 1-2 letter. The “loss of visual acuity benefit, dosing every 3 months compared with continued monthly dosing” value in the assay with neovascular (wet) AMD (over the next 9 months after 4 monthly doses, FDA label) was about 5 letter. Also, the “average anti-VEGF doses required per year” value in assay [2] (setting [8]) was 1.23 dose per year.

Source of the values: US12692301B2, “Methods of improving retina-associated disease outcome using CCR3-inhibitors” (ALKAHEST INC., priority 2020, dated 2026).
